In US8710089B2, “Triazole derivatives as ghrelin analogue ligands of growth hormone secretagogue receptors” (Zentaris GmbH, priority 2005, dated 2014) one finds IC50 data, which are given here for eleven compounds.

The structures appear in SMILES notation.

In this assay the target is T1, human GHS-R 1a (Homo sapiens, UniProt Q92847).
T1 construct: expressed in transfected cells; host or cells: LLC PK-1 porcine renal epithelial cells (ECACC No. 86121112), isolated plasma membranes
T1 sequence (Q92847 whole entry): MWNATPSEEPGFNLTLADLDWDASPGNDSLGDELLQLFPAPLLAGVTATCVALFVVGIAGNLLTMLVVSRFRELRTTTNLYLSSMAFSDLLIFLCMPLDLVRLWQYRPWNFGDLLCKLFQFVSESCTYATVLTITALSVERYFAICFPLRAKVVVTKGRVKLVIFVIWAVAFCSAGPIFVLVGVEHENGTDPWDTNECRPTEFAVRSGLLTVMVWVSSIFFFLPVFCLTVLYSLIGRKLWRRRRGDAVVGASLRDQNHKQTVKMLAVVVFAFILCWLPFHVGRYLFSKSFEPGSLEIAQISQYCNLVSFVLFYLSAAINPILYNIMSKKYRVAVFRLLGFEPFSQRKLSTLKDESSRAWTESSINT
Description: GHS-R 1a receptor-ligand binding assay (membrane preparations from transfected LLC PK-1 cells). To be noted: displacement of 125I-His9-ghrelin (60 pM); membranes of LLC PK-1 cells transfected with human GHS-R 1a; mean of at least two independent experiments in triplicates. As to the method:
(J. Med. […] Med. Chem. 2003, 46: 1191-1203), were incubated in homogenization buffer HB [50 mM Tris (pH 7.3), 5 mM MgCl2, 2.5 mM EDTA, and 30 μg/mL bacitracin (Sigma)] for 60 min at 25° C. (steady-state conditions) with 60 pM ^125I-[…]-ghrelin (Amersham) in the presence or absence of competing compounds (compounds of the invention). […] Nonspecific binding was defined using an excess (10^-6 M) of ghrelin. The binding reaction was stopped by addition of 4 mL of ice-cold HB followed by rapid filtration over Whatman GP/C filters presoaked with 0.5% polyethyleneimine to prevent excessive binding of radioligand to the filters. […] IC50 values given are the mean of at least two independent experiments performed in triplicates.
Compound `COc1ccc(Cn2c(CCc3c[nH]c4ccccc34)nnc2[C@@H](Cc2c[nH]c3ccccc23)NC(=O)C2CCCNC2)c(OC)c1` (stereo partly drawn) [compound 32, (R)—N-(1-(5-(2-(1H-indol-3-yl)ethyl)-4-(2,4-dimethoxybenzyl)-4H-1,2,4-triazol-3-yl)-2-(1H-indol-3-yl)ethyl)piperidine-3-carboxamide] registered an IC50 of 10.3 nM. In turn, `Cc1ccc(Cn2c(CCCc3ccccc3)nnc2[C@@H](Cc2c[nH]c3ccccc23)NC(=O)C(C)(C)N)cc1` [compound 33, (R)—N-(1-(4-(4-methylbenzyl)-5-(3-phenylpropyl)-4H-1,2,4-triazol-3-yl)-2-(1H-indol-3-yl)ethyl)-2-amino-2-methylpropanamide] came in with a concentration for half-maximal inhibition (IC50) of 30 nM. `Cc1ccc(Cn2c(CCc3c[nH]c4ccccc34)nnc2[C@@H](Cc2c[nH]c3ccccc23)NC(=O)C(C)(C)N)cc1` [compound 34, (R)—N-(1-(5-(2-(1H-indol-3-yl)ethyl)-4-(4-methylbenzyl)-4H-1,2,4-triazol-3-yl)-2-(1H-indol-3-yl)ethyl)-2-amino-2-methylpropanamide] yielded a concentration for half-maximal inhibition (IC50) of 28 nM. Compound `COc1ccc(Cn2c(CCc3c[nH]c4ccccc34)nnc2[C@@H](Cc2c[nH]c3ccccc23)NC(=O)C2CCCCN2)c(OC)c1` (stereo partly drawn) [compound 36, (R)—N-(1-(5-(2-(1H-indol-3-yl)ethyl)-4-(2,4-dimethoxybenzyl)-4H-1,2,4-triazol-3-yl)-2-(1H-indol-3-yl)ethyl)piperidine-2-carboxamide] yielded a concentration for half-maximal inhibition (IC50) of 53 nM. In the case of `Cc1ccc(Cn2c(CCc3ccccc3)nnc2[C@@H](Cc2c[nH]c3ccccc23)NC(=O)C(C)(C)N)cc1` [compound 37, (R)—N-(1-(4-(4-methylbenzyl)-5-phenethyl-4H-1,2,4-triazol-3-yl)-2-(1H-indol-3-yl)ethyl)-2-amino-2-methylpropanamide], the IC50 turned out to be 136 nM. This IC50 lies about 2.6-fold higher than the previous one. In the case of `COc1ccc(Cn2c(CCc3ccccc3)nnc2[C@@H](Cc2c[nH]c3ccccc23)NC(=O)[C@@H]2C[C@@H](O)CN2)cc1` [compound 40, (2S,4R)—N—((R)-1-(4-(4-methoxybenzyl)-5-phenethyl-4H-1,2,4-triazol-3-yl)-2-(1H-indol-3-yl)ethyl)-4-hydroxypyrrolidine-2-carboxamide], the IC50 stood at 249 nM. In turn, `COc1ccc(Cn2c(CCc3ccccc3)nnc2[C@@H](Cc2c[nH]c3ccccc23)NC(=O)[C@H]2CCCNC2)cc1` [compound 41, (S)—N—((R)-1-(4-(4-methoxybenzyl)-5-phenethyl-4H-1,2,4-triazol-3-yl)-2-(1H-indol-3-yl)ethyl)piperidine-3-carboxamide] had an IC50 of 16 nM. Against the preceding compound, the IC50 is about 16-fold lower.

Compound `COc1ccc(Cn2c(CCc3ccccc3)nnc2[C@@H](Cc2c[nH]c3ccccc23)NC(=O)[C@@H]2CCCNC2)cc1` [compound 42, (R)—N—((R)-1-(4-(4-methoxybenzyl)-5-phenethyl-4H-1,2,4-triazol-3-yl)-2-(1H-indol-3-yl)ethyl)piperidine-3-carboxamide] yielded a half-inhibitory concentration (IC50) of 7 nM. Compound `CCc1ccc(Cn2c(CCc3ccccc3)nnc2[C@@H](Cc2c[nH]c3ccccc23)NC(=O)C(C)(C)N)cc1` [compound 43, (R)—N-(1-(4-(4-ethylbenzyl)-5-phenethyl-4H-1,2,4-triazol-3-yl)-2-(1H-indol-3-yl)ethyl)-2-amino-2-methylpropanamide] registered an IC50 of 44 nM. Turning to `COc1ccc(Cn2c(CCc3c[nH]c4ccccc34)nnc2[C@@H](Cc2c[nH]c3ccccc23)NC(=O)C2CCNCC2)cc1` [compound 45, (R)—N-(1-(5-(2-(1H-indol-3-yl)ethyl)-4-(4-methoxybenzyl)-4H-1,2,4-triazol-3-yl)-2-(1H-indol-3-yl)ethyl)piperidine-4-carboxamide], the IC50 was 0.3 nM. Take `COc1ccc(Cn2c(CCc3ccccc3)nnc2[C@@H](Cc2c[nH]c3ccccc23)NC(=O)[C@@H]2CCCN2)cc1` [compound 46, (S)—N—((R)-1-(4-(4-methoxybenzyl)-5-phenethyl-4H-1,2,4-triazol-3-yl)-2-(1H-indol-3-yl)ethyl)pyrrolidine-2-carboxamide]: the 50% inhibitory concentration (IC50) stood at 12 nM.
